From US12435068B2, “Anthelmintic compounds” (Elanco Animal Health GmBh, priority 2018, dated 2025)
Converted amounts (≈) assume the structure as drawn.

Tests used:
[1] = system: Dirofilaria immitis microfilariae; experiment: In Vitro Assay 2: Dirofilaria immitis microfilariae (DIROIM L1) motility; assay type: cell-based; settings: 72 h, read-out: EC50 ppm
C. elegans Slo-1a = C. elegans Slo-1a (Caenorhabditis elegans, UniProt Q95V25)
Sequence of C. elegans Slo-1a (Q95V25 whole entry): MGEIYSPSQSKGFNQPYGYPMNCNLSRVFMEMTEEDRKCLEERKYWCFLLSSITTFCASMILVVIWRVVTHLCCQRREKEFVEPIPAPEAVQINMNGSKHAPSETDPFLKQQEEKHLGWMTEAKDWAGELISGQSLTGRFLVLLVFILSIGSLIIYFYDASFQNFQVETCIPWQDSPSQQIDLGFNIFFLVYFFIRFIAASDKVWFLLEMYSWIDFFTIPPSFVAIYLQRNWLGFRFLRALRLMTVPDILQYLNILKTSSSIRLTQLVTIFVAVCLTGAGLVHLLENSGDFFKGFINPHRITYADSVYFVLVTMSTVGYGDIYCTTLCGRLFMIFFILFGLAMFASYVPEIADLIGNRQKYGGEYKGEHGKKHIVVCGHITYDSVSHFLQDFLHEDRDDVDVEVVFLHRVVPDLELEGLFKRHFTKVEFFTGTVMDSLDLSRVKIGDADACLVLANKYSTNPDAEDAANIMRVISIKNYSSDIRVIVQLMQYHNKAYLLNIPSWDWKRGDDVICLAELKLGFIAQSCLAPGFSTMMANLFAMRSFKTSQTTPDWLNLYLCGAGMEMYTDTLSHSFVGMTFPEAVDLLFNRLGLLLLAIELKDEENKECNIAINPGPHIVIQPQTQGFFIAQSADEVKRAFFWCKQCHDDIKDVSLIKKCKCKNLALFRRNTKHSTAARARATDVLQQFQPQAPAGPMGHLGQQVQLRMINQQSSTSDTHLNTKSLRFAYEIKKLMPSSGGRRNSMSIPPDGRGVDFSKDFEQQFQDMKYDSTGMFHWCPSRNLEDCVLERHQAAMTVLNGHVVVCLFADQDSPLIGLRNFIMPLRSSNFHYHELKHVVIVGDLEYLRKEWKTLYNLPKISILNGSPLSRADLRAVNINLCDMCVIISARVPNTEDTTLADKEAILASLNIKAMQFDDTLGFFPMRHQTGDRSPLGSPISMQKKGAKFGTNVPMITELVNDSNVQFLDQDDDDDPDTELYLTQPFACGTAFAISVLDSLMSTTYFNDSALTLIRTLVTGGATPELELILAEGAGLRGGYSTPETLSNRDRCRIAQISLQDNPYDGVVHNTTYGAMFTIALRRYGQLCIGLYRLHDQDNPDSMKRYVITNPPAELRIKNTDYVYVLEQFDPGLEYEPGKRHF
Procedure: Cells were cultured at 37° C. and 5% CO2 in MEMalpha with Gutamax I (Invitrogen, Nr.: 32571), supplemented with 10% (v/v) heat inactivated fetal bovine serum (Invitrogen, Nr.: 10500), G418 (1 mg/ml, Invitrogen, Nr.: 10131). Cells were detached using Accutase (Sigma, Nr.: A6964).
Membrane Potential Measurements
Laboratory compound testing was performed on 384-well microtiter plates (MTPs, Greiner, Nr.: 781092). 8000 cells/well were plated onto 384-well MTPs and cultured for 20 to 24 hours at 37° C. and 5% CO2. After removal of the cell culture medium, the cells were washed once with tyrode (150 mM NaCl, 0.3 mM KCl, 2 mM CaCl2, 1 mM MgCl2, 0.8 mM NaH2PO4, 5 mM Glucose, 28 mM Hepes, pH 7.4) and then loaded with the voltage sensitive dye of the Membrane Potential Assay Kit diluted in tyrode for 1 h at room temperature.
After starting the measurement of fluorescence using a FLIPR Tetra (Molecular Devices, Exc. 510-545 nm, Emm. 565-625 nm), test compounds were added followed by the addition of KCl tyrode (final assay concentration: 70 mM KCl, 2 mM CaCl2, 1 mM MgCl2, 0.8 mM NaH2PO4, 5 mM Glucose, 28 mM Hepes, pH 7.4, including the voltage sensitive dye). The measurement was completed after 7 minutes.

SMILES	EC50 [1]	EC50 (C. elegans Slo-1a)
CC(C)c1c(C(=O)N[C@H]2CCOc3ccccc32)sc2c(-c3cc(Cl)cc(Cl)c3)cccc12 [Example Compound S1-1, 7-(3,5-Dichlorophenyl)-N-[(4S)-3,4-dihydro-2H-chromen-4-yl]-3-isopropyl-1-benzothiophene-2-carboxamide]	0.08 µg/mL (≈ 0.161 µM)	2.51 nM
CC(C)c1c(C(=O)N[C@H]2CCOc3ccccc32)sc2c(-c3ccc(F)c(F)c3)cccc12 [Example Compound S1-4, 7-(3,4-Difluorophenyl)-N-[(4S)-3,4-dihydro-2H-chromen-4-yl]-3-isopropyl-1-benzothiophene-2-carboxamide]	0.77 µg/mL (≈ 1.66 µM)	50.1 nM
CN(C)c1c(C(=O)N[C@H]2CCOc3ccccc32)sc2c(-c3cc(Cl)cc(Cl)c3)cccc12 [Example Compound S1-5, 7-(3,5-Dichlorophenyl)-N-[(4S)-3,4-dihydro-2H-chromen-4-yl]-3-(dimethylamino)-1-benzothiophene-2-carboxamide]	0.25 µg/mL (≈ 0.503 µM)	25.1 nM
CN(C)c1c(C(=O)N[C@H]2CCOc3ccccc32)sc2c(-c3cccc(Cl)c3)cccc12 [Example Compound S1-6, 7-(3-Chlorophenyl)-N-[(4S)-3,4-dihydro-2H-chromen-4-yl]-3-(dimethylamino)-1-benzothiophene-2-carboxamide]	0.25 µg/mL (≈ 0.54 µM)	31.6 nM
CN(C)c1c(C(=O)N[C@H]2CCOc3ccccc32)sc2c(-c3cccc(Cl)c3Cl)cccc12 [Example Compound S1-7, 7-(2,3-Dichlorophenyl)-N-[(4S)-3,4-dihydro-2H-chromen-4-yl]-3-(dimethylamino)-1-benzothiophene-2-carboxamide]	0.11 µg/mL (≈ 0.221 µM)	10 nM
CN(C)c1c(C(=O)N[C@H]2CCOc3ccccc32)sc2c(-c3ccc(F)c(F)c3)cccc12 [Example Compound S1-8, 7-(3,4-Difluorophenyl)-N-[(4S)-3,4-dihydro-2H-chromen-4-yl]-3-(dimethylamino)-1-benzothiophene-2-carboxamide]	0.63 µg/mL (≈ 1.36 µM)	3160 nM
COc1c(C(=O)N[C@H]2CCOc3ccccc32)sc2c(-c3cc(Cl)cc(Cl)c3)cccc12 [Example Compound S1-9, 7-(3,5-Dichlorophenyl)-N-[(4S)-3,4-dihydro-2H-chromen-4-yl]-3-methoxy-1-benzothiophene-2-carboxamide]	0.27 µg/mL (≈ 0.557 µM)	251 nM
COc1c(C(=O)N[C@H]2CCOc3ccccc32)sc2c(-c3cccc(Cl)c3)cccc12 [Example Compound S1-10, 7-(3-Chlorophenyl)-N-[(4S)-3,4-dihydro-2H-chromen-4-yl]-3-methoxy-1-benzothiophene-2-carboxamide]	0.37 µg/mL (≈ 0.822 µM)	398 nM
O=C(N[C@H]1CCOc2ccccc21)c1sc2c(-c3cccc(Cl)c3Cl)cccc2c1Cl [Example Compound S1-12, 3-Chloro-7-(2,3-dichlorophenyl)-N-[(4S)-3,4-dihydro-2H-chromen-4-yl]-1-benzothiophene-2-carboxamide]	0.1 µg/mL (≈ 0.205 µM)	158 nM
CN(C)c1c(C(=O)N[C@H]2CCOc3ccccc32)sc2c(-c3cccc(Cl)c3Cl)nccc12 [Example Compound S1-13, 7-(2,3-Dichlorophenyl)-N-[(4S)-3,4-dihydro-2H-chromen-4-yl]-3-(dimethylamino)thieno[2,3-c]pyridine-2-carboxamide]	0.08 µg/mL (≈ 0.161 µM)	15.8 nM
COc1c(C(=O)N[C@H]2CCOc3ccccc32)sc2c(-c3cc(Cl)cc(Cl)c3)nccc12 [Example Compound S1-14, 7-(3,5-Dichlorophenyl)-N-[(4S)-3,4-dihydro-2H-chromen-4-yl]-3-methoxythieno[2,3-c]pyridine-2-carboxamide]	2 µg/mL (≈ 4.12 µM)	794 nM
COc1c(C(=O)N[C@H]2CCOc3ccccc32)sc2c(-c3cccc(Cl)c3)nccc12 [Example Compound S1-15, 7-(3-Chlorophenyl)-N-[(4S)-3,4-dihydro-2H-chromen-4-yl]-3-methoxythieno[2,3-c]pyridine-2-carboxamide]	> 2 µg/mL	794 nM
COc1c(C(=O)N[C@H]2CCOc3ccccc32)sc2c(-c3cccc(Cl)c3Cl)nccc12 [Example Compound S1-16, 7-(2,3-Dichlorophenyl)-N-[(4S)-3,4-dihydro-2H-chromen-4-yl]-3-methoxythieno[2,3-c]pyridine-2-carboxamide]	0.18 µg/mL (≈ 0.371 µM)	25.1 nM
O=C(N[C@H]1CCOc2ccccc21)c1sc2c(-c3cccc(Cl)c3Cl)ccc(F)c2c1N1CCOCC1 [Example Compound S1-17, 7-(2,3-Dichlorophenyl)-N-[(4S)-3,4-dihydro-2H-chromen-4-yl]-4-fluoro-3-(morpholin-4-yl)-1-benzothiophene-2-carboxamide]	0.52 µg/mL (≈ 0.933 µM)	50.1 nM
O=C(N[C@H]1CCOc2ccccc21)c1sc2c(-c3cc(Cl)cc(Cl)c3)ccc(F)c2c1N1CCOCC1 [Example Compound S1-18, 7-(3,5-Dichlorophenyl)-N-[(4S)-3,4-dihydro-2H-chromen-4-yl]-4-fluoro-3-(morpholin-4-yl)-1-benzothiophene-2-carboxamide]	0.27 µg/mL (≈ 0.484 µM)	126 nM
Cn1c(C(=O)N[C@H]2CCOc3ccccc32)nc2c(-c3cccc(Cl)c3Cl)ccnc21 [Example Compound S2-1, 7-(2,3-Dichlorophenyl)-N-[(4S)-3,4-dihydro-2H-chromen-4-yl]-3-methyl-3H-imidazo[4,5-b]pyridine-2-carboxamide]	0.63 µg/mL (≈ 1.39 µM)	31.6 nM
Cn1c(C(=O)N[C@H]2CCc3ccccc32)nc2c(-c3cccc(Cl)c3Cl)ccnc21 [Example Compound S2-2, 7-(2,3-Dichlorophenyl)-N-[(1S)-2,3-dihydro-1H-inden-1-yl]-3-methyl-3H-imidazo[4,5-b]pyridine-2-carboxamide]	0.37 µg/mL (≈ 0.846 µM)	501 nM
CC(C)n1c(C(=O)N[C@H]2CCOc3ccccc32)cc2c(-c3cc(Cl)nc(Cl)c3)cccc21 [Example Compound S2-3, 4-(2,6-Dichloropyridin-4-yl)-N-[(4S)-3,4-dihydro-2H-chromen-4-yl]-1-(propan-2-yl)-1H-indole-2-carboxamide]	> 2 µg/mL	100 nM
CC(C)n1c(C(=O)N[C@H]2CCOc3ccccc32)cc2c(-c3cc(Cl)cc(Cl)c3Cl)cccc21 [Example Compound S2-4, N-[(4S)-3,4-Dihydro-2H-chromen-4-yl]-1-(propan-2-yl)-4-(2,3,5-trichlorophenyl)-1H-indole-2-carboxamide]	0.02 µg/mL (≈ 0.0389 µM)	15.8 nM
CC(C)n1c(C(=O)N[C@H]2CCOc3ccccc32)cc2c(-c3cc(Cl)cc(Cl)c3)cccc21 [Example Compound S2-5, 4-(3,5-Dichlorophenyl)-N-[(4S)-3,4-dihydro-2H-chromen-4-yl]-1-(propan-2-yl)-1H-indole-2-carboxamide]	0.06 µg/mL (≈ 0.125 µM)	25.1 nM
CC(C)n1c(C(=O)N[C@H]2CCOc3ccccc32)cc2c(-c3cccc(Cl)c3Cl)cccc21 [Example Compound S2-7, 4-(2,3-Dichlorophenyl)-N-[(4S)-3,4-dihydro-2H-chromen-4-yl]-1-(propan-2-yl)-1H-indole-2-carboxamide]	0.01 µg/mL (≈ 0.0209 µM)	20 nM
